Experimental data taken from PMC11881035, “^68Ga-Labeled Glycopeptides as Effective Tools for Liver Function Imaging” (Molecular Pharmaceutics, 2025).
Where a SMILES comes first, the peptide text is derived from it. The star is where a group is joined. X1 = O=C(CCCCc1cn([C@@H]2O[C@H](CO)[C@H](O)[C@H](O)[C@H]2O)nn1)*; NODAGA = O=C(O)CN1CCN(CC(=O)O)CCN(C(CCC(=O)*)C(=O)O)CC1; GABA = NCCCC(=O)O

Test system: healthy male C57BL6 mouse
Test: PET/MR imaging in C57BL6 mice, time activity curves
Type: in vivo
Experimental: The ^68Ge/^68Ga generator, devices for analytical HPLC, semipreparative HPLC, mass spectrometry, radio-thin layer chromatography, gamma counter and animal models for biodistribution and imaging studies including the image reconstruction procedures were the same as described before.[22] Stability assays in PBS and human blood serum, protein binding as well as determination of log D values followed established protocols.[25] Binding affinities (IC50) of selected ligands were determined in an isolated receptor-based assay according to a previously published procedure with minor modifications.[22] Dilutions of nonradioactive complexes were made with PBS + 0.1% BSA (10^–5–10^–12 M). Preparation of [^125I]I-Asialoorosomucoid which serves as the radioactive standard ligand has been published recently.[21]
Animal experiments were performed in accordance with the Austrian animal experiments law (BGBl. I Nr. 114/2012) and the institution’s animal welfare standards as approved by the Austrian Federal Ministry of Education, Science and Research (BMBWF, 2022–0.311.708). Imaging experiments were conducted at Werner Siemens Imaging Center (Tübingen, Germany) according to the German animal welfare act as approved by the local authorities (R5/19 G, R09/21 G). […]

## NC(=O)CNC(=O)CNC(=O)[C@H](CCCCNC(=O)CCCCc1cn([C@@H]2O[C@H](CO)[C@H](O)[C@H](O)[C@H]2O)nn1)NC(=O)CNC(=O)CNC(=O)[C@H](CCCCNC(=O)CCCCc1cn([C@@H]2O[C@H](CO)[C@H](O)[C@H](O)[C@H]2O)nn1)NC(=O)CNC(=O)CNC(=O)[C@H](CCCCNC(=O)CCCCc1cn([C@@H]2O[C@H](CO)[C@H](O)[C@H](O)[C@H]2O)nn1)NC(=O)CNC(=O)CNC(=O)[C@H](CCCCNC(=O)CCCCc1cn([C@@H]2O[C@H](CO)[C@H](O)[C@H](O)[C@H]2O)nn1)NC(=O)CNC(=O)CNC(=O)[C@H](CCCCNC(=O)CCCCc1cn([C@@H]2O[C@H](CO)[C@H](O)[C@H](O)[C@H]2O)nn1)NC(=O)CNC(=O)CNC(=O)[C@H](CCCCNC(=O)CCCCc1cn([C@@H]2O[C@H](CO)[C@H](O)[C@H](O)[C@H]2O)nn1)NC(=O)CNC(=O)CNC(=O)[C@H](CCCCNC(=O)CCCCc1cn([C@@H]2O[C@H](CO)[C@H](O)[C@H](O)[C@H]2O)nn1)NC(=O)CNC(=O)CNC(=O)[C@H](CCCCNC(=O)CCCCc1cn([C@@H]2O[C@H](CO)[C@H](O)[C@H](O)[C@H]2O)nn1)NC(=O)CNC(=O)CNC(=O)[C@H](CCCCNC(=O)CCCCc1cn([C@@H]2O[C@H](CO)[C@H](O)[C@H](O)[C@H]2O)nn1)NC(=O)CCCNC(=O)CCC(C(=O)O)N1CCN(CC(=O)O)CCN(CC(=O)O)CC1 (some centres unmarked) [[^68Ga]Ga-NODAGA-NonaLysan, metal not drawn] ({NODAGA-GABA}-K(X1)GGK(X1)GGK(X1)GGK(X1)GGK(X1)GGK(X1)GGK(X1)GGK(X1)GGK(X1)GG-NH2)
PET/MR, C57BL6 mouse, 1 MBq (100 pmol)
  time of fast liver accumulation: ≤ 2 min
Followed by stable retention
  time of rapid tracer accumulation in liver (time-activity curves): ≤ 5 min
